Experiments:
Type in all cases: physicochemical
[1] = Absorption spectra (λmax, molar absorption coefficient); conditions: for λmax / εmax: ethanol solutions
[2] = Triplet lifetime by laser flash photolysis; conditions: air-saturated ethanol
Description: (§1) Absorption spectra were recorded on a Shimadzu UV-2100 spectrophotometer or with a Carry 50 Biospectrophotometer (Varian, Mulgrave, USA). Fluorescence spectra were measured with a Spex Fluorolog 3 spectrophotometer, with correction for the wavelength dependence system (RCA C31034 photomultiplier), or with a PerkinElmer LS 50 spectrofluorimeter. Transient absorption spectra were measured with an Applied Photophysics LKS 60 nanosecond laser flash photolysis kinetic spectrometer, using the third harmonic of a Spectra-Physics Quanta Ray GCR 130-01 Nd/YAG laser for excitation, a Hamamatsu 1P28 photomultiplier and a Hewlett-Packard Infinium oscilloscope (1 GS/s). Flash photolysis measurements were made in the presence of air and in argon saturated solutions. Photoacoustic calorimetry employed the same Nd/YAG laser, a home-made front-face photoacoustic cell with a 2.25 MHz Panametrics transducer (model 5676) and a Tektronix DSA 601 transient recorder. Room-temperature singlet-oxygen phosphorescence was measured at 1270 nm with a Hamamatsu R5509-42 photomultiplier, cooled to 193 K in a liquid nitrogen chamber (Products for Research model PC176TSCE005), following laser excitation of aerated solutions at 355 nm, using an adapted Applied Photophysics spectrometer. Singlet oxygen emission at 1270 nm was also monitored with a liquid nitrogen-cooled germanium detector (North Coast) coupled to a Tectronix Digitizing scope (TDS 520B), following sample excitation with 5 ns laser pulses of the third harmonic (355 nm) generated by a Q-switched Nd:YAG laser (Continuum Surelite II).
The triplet-triplet absorption spectra and the triplet lifetimes of the photosensitisers (τT) were measured with the transient absorption spectra equipment described above, with excitation at 355 nm, where the solutions had absorbances between 0.25 and 0.30.
The triplet-triplet absorption spectra of the Luzitins measured in this work were in good agreement with that in the literature data for chlorins and bacteriochlorins. All triplet decays were clearly mono-exponential. […] Such values are consistent with diffusion limited energy transfer from the triplet state of the sensitizer to molecular oxygen through a charge-transfer interaction.

[3] = Singlet oxygen quantum yield and lifetime (1270 nm phosphorescence); conditions: air-saturated ethanol; for ΦΔ (singlet oxygen quantum yield): phenalenone as reference
Description: as §1
Singlet oxygen quantum yields in ethanol were obtained using a procedure described by some of us, using phenalenone as reference. The literature value for the singlet oxygen quantum yield obtained with phenalenone in ethanol is ΦΔ=0.95 [38].
All the singlet oxygen emissions measured in aerated ethanol solutions are very well described by mono-exponential decays, with typical singlet oxygen lifetimes (τΔ). The ΦΔ values of Table 1 were obtained by the procedures described above and are representative of these photosensitisers.
An air-saturated solution of Luzitin-Cl2Hep in ethanol with an absorbance ca. 0.2 at 355 nm was excited in a 1 cm quartz cuvette by a pulsed Nd:YAG laser, and the singlet oxygen emission was followed at 1270 nm, using the equipment and methods previously described. The intensity of the singlet oxygen phosphorescence was studied as a function of the laser intensity. A similar study was made with phenalenone in ethanol, at a concentration matching the absorbance of Luzitin-Cl2Hep at 355 nm. […] Various laser energies were employed and from the slopes of the energy dependence of singlet oxygen emission and the value of ΦΔ=0.95 for phenalenone in this ethanol, we obtained ΦΔ=0.78 for Luzitin-Cl2Hep.

[4] = Photobleaching under 748 nm diode laser irradiation; conditions: for t1/2 (photobleaching half-life): 100 mW laser irradiation at 748 nm
Excerpt: The irradiation of bacteriochlorins in the photobleaching experiments employed the 748 nm Lynx diode laser. For animal studies we employed a costumer-made Hamamatsu diode laser, type LA0873. S/N M070301, which delivered 140 mW at 748 nm. This diode laser was controlled by a ThorLabs 500 mA ACC/APC Laser Diode Controller and in-house electronics. The laser energies of this and the other higher-energy lasers employed in this work were regularly checked with an Ophir model AN/2E laser power meter.
Photobleaching experiments were conducted in PBS. PBS:methanol (50:50) and methanol solutions. The solutions were irradiated in a cuvette with an optical path of 1 cm and the Lynx diode laser. The initial absorption of the solutions was ca. 0.8. The mechanism of photobleaching was assessed with the irradiation of the sensitizer using the Hamamatsu diode laser at 80 mW. The sensitizer was irradiated in PBS and in the presence of ascorbic acid or azide.
The chemical stability of the compounds was studied exposing them to light, air, and pH changes. The most significant degradation occurs for aerated solutions irradiated by light of the appropriate wavelength. In such circumstances the photobleaching of the compounds follows a first-order rate and is proportional to the energy of the incident laser light. In general, it was also observed that the photobleaching rate increases with the amount of water present in the solution. Bennett reported the photoconversion of Foscan® (m-THPC) and of the analogous bacteriochlorin (m-THPB) in PBS:methanol (50:50). Scherz reported the photoconversion of Tookad® in acetone and Triton-X:PBS [3]. For the purpose of comparing the photostability of Luzitins with that of Foscan® and Tookad®, we present in Table 2 the half-lives (t1/2) of representative drugs described herein, together with those of Foscan and Tookad® normalized for a laser power of 100 mW.
Luzitin-FMet was dissolved in PBS:methanol (2:3), transferred to a 1 cm quartz cell and its absorption spectrum was registered, FIG. 6. The quartz cell was then placed in the beam of the 748 nm Lynx diode laser, previously unfocused to have a beam diameter coincident with the window of the quartz cell. The laser power measured under these conditions was 28.8 mW. Every 5 minutes the irradiation was interrupted and a new absorption spectrum was registered. This procedure was followed for 65 minutes. The photobleaching follows the kinetics of a first-order reaction in the time window of the experiment. […] Whereas the bacteriochlorin peak at 743 nm is reduced from an absorbance of 1.128 to 0.337, the absorption of the chlorin only increases from 0.114 to 0.151. Taking into consideration the molar absorption coefficients of the compounds at these wavelengths, it is clear that whereas 70% of the bacteriochlorin is destroyed during the irradiation, only a few percent of chlorin are formed.
The half-lives of other bacteriochlorins normalized 100 mW laser irradiation at 748 nm are presented in […], together with the literature data for the photodegradation of Foscan® and Tookad® normalized for the same light intensity. It was also observed that the half-live to Luzitin-Cl is increased by a factor of 30 when the PBS solution of the photosensitizer is saturated with Argon, which reduces the oxygen concentration in the solution.

[5] = n-octanol:water partition coefficient (shake-flask)
Description: The n-octanol:water partition coefficients (CP) were measured using a minor modification of the shake-flask method described by some of us in the literature. The modification concerned the excitation of the absorption band ca 500 nm and the collection of the fluorescence in the red/IR region.

[6] = corrected for the chlorin content

SMILES	λmax [1]	εmax [1, 6]	τT (air) triplet lifetime [2]	τΔ (singlet oxygen lifetime) [3]	ΦΔ (singlet oxygen quantum yield) [3]	t1/2 (photobleaching half-life) ([4]; PBS)	log KOW (n-octanol:water partition coefficient) [5]	enhancement of ε at 750 nm band, more polar atropisomer fraction (βα3+α4) [1]	εmax of the more polar atropisomer fraction (βα3+α4) ([1]; at 748 nm (750 nm band), estimated)	εmax [1]	t1/2 (photobleaching half-life) ([4]; PBS:methanol)	bacteriochlorin destroyed during irradiation ([4]; PBS:methanol (2:3), 748 nm, 28.8 mW, 65 minutes)	t1/2 (photobleaching half-life) ([4]; methanol)
O=S(=O)(O)c1ccc(Cl)c(-c2c3nc(c(-c4c(Cl)ccc(S(=O)(=O)O)c4Cl)c4ccc([nH]4)c(-c4c(Cl)ccc(S(=O)(=O)O)c4Cl)c4nc(c(-c5c(Cl)ccc(S(=O)(=O)O)c5Cl)c5ccc2[nH]5)CC4)CC3)c1Cl [Luzitin-Cl2, 5,10,15,20-tetrakis(2,6-dichloro-3-sulfonylphenyl)bacteriochlorin]	745.0 nm	27,000^d) M^−1 cm^−1	226 nsec	15.4 μsec	0.85	358 s	−1.75						
CCNS(=O)(=O)c1ccc(Cl)c(-c2c3nc(c(-c4c(Cl)ccc(S(=O)(=O)NCC)c4Cl)c4ccc([nH]4)c(-c4c(Cl)ccc(S(=O)(=O)NCC)c4Cl)c4nc(c(-c5c(Cl)ccc(S(=O)(=O)NCC)c5Cl)c5ccc2[nH]5)CC4)CC3)c1Cl [Luzitin-Cl2Et, 5,10,15,20-tetrakis(2,6-dichloro-3-N-ethylsulfamoylphenyl)bacteriochlorin]	745.5 nm		265 nsec	13.7 μsec	0.66		1.8	50%	150,000 M^−1 cm^−1	96,000 M^−1 cm^−1	4,013 sec		
O=S(=O)(O)c1ccc(Cl)c(-c2c3nc(c(-c4cc(S(=O)(=O)O)ccc4Cl)c4ccc([nH]4)c(-c4cc(S(=O)(=O)O)ccc4Cl)c4nc(c(-c5cc(S(=O)(=O)O)ccc5Cl)c5ccc2[nH]5)CC4)CC3)c1 [Luzitin-Cl, 5,10,15,20-tetrakis(2-chloro-5-sulfonylphenyl)bacteriochlorin]	746.5 nm	23,000^d) M^−1 cm^−1	240 nsec	13.6 μsec	0.43	174 s	−1.70						
CNS(=O)(=O)c1ccc(F)c(-c2c3nc(c(-c4cc(S(=O)(=O)NC)ccc4F)c4ccc([nH]4)c(-c4cc(S(=O)(=O)NC)ccc4F)c4nc(c(-c5cc(S(=O)(=O)NC)ccc5F)c5ccc2[nH]5)CC4)CC3)c1 [Luzitin-FMet, 5,10,15,20-tetrakis(2-fluoro-5-N-methylsulfamoylphenyl)bacteriochlorin]	742.5 nm	62,000^d) M^−1 cm^−1		14.1 μsec	0.71		2.3				647 s	70%	3,553 sec

Source: US9670217B2, “Process for preparing chlorins and their pharmaceutical uses” (UNIVERSIDADE DE COIMBRA, priority 2008, dated 2017)
